Measured values reported in PMC9739792, “Screening and Molecular Mechanisms of Novel ACE-Inhibitory Peptides from Gracilariopsis lemaneiformis” (International Journal of Molecular Sciences, 2022).
Where no end group is shown, it is not given here.

Legend:
[1] = test system: spontaneously hypertensive rats (SHR); assay: Antihypertensive effect of GLP in SHR after oral administration; type: in vivo, rat; settings: captopril 30 mg/kg·bw
Experimental: SHRs (male, 10 weeks, 220 ± 20 g body weight) were supplied by Vital River Laboratory Animal Technology Co., Ltd. (Beijing, China). […] Three doses of GLP (1200, 1500, 1800 mg/kg of body weight, BW) was orally administered to SHRs. The blank group (saline) and Captopril (30 mg/kg·bw) group were used as negative and positive control, respectively. BP-98A blood pressure monitor (Softron Biotechnology, Beijing, China) was used to determine blood pressure by the tail-cuff method. […] Animals were treated in accordance with the guidelines of the National Institutes of Health and Use of Laboratory Animals.

ACE from rabbit lung = target: T1, ACE from rabbit lung (Oryctolagus cuniculus, UniProt P12822); assay: ACE-inhibitory activity assay (HHL substrate, hippuric acid by RP-HPLC); type: biochemical; settings: HHL 5 mM, pH 8.3, 37 °C, 45 min; for inhibition at 1000 µg/mL: synthetic peptides dissolved at 1 mg/mL; for IC50: synthetic peptides, mean ± SD, SD, read-out: IC50 of ACE inhibition
T1 construct: ACE from rabbit lung (EC3.4.15.1); purchased Sigma-Aldrich; host or cells: rabbit lung tissue
T1 sequence (P12822 34-1310): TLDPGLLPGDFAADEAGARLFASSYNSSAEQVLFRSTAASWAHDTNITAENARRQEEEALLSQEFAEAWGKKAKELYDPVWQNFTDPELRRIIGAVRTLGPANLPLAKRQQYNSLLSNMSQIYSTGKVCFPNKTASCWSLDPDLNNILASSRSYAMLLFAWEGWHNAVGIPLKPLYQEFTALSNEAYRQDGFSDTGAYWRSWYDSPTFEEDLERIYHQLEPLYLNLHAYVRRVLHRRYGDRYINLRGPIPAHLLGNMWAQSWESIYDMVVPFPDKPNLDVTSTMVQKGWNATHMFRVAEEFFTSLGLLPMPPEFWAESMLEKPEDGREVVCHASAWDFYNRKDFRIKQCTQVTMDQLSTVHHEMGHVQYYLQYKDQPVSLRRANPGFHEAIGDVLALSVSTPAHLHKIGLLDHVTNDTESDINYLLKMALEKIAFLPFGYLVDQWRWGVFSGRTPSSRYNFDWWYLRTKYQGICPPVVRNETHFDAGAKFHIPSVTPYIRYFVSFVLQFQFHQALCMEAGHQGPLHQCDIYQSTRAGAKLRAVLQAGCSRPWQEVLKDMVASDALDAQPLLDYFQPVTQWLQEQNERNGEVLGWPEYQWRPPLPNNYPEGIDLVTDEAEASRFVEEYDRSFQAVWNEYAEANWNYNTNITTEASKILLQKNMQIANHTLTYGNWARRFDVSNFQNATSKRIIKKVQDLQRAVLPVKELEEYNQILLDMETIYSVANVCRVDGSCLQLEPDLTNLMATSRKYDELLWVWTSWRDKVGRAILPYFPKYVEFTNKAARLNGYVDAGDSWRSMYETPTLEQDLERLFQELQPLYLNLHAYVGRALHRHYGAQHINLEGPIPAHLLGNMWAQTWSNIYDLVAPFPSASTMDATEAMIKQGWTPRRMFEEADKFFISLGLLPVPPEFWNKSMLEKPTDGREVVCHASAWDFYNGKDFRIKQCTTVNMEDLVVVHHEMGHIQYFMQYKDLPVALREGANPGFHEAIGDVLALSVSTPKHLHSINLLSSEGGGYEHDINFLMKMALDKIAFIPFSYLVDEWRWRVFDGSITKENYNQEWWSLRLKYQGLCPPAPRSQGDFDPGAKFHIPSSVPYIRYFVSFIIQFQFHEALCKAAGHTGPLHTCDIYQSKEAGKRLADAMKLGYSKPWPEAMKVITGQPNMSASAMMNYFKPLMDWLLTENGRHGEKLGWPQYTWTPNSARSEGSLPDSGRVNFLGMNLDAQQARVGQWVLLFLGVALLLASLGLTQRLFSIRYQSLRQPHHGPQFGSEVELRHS
Experimental: The ACE-inhibitory activity was determined according to the method of Ma et al., with some modification. Briefly, 50 µL of sample in 0.1 mol/L borate buffer (pH 8.3, containing 0.3 M NaCl) was mixed with 150 µL of 5 mM hippuryl-l-histidyl-l-leucine (HHL) and incubated at 37 °C for 10 min. Then, the reaction was initiated by adding 50 µL of ACE solution (50 mU/mL) and incubating at 37 °C for 45 min. The reaction was then stopped by the addition of 250 µL of 1 M HCl. The formation of hippuric acid (HA) was measured by RP-HPLC (Waters, Milford, MA, USA) at 220 nm.
The screened and predicted potential ACE-inhibitory peptides were chemically synthesized at Genscript biotech corporation (Nanjing, China) using the Fmoc solid-phase method. […] Synthetic peptides were dissolved at 1 mg/mL for validation of their ACE-inhibitory activity.

Compound | time course of antihypertensive effect compared with GLP [1] | inhibition at 1000 µg/mL (ACE from rabbit lung) [%] | IC50 (ACE from rabbit lung) [µM]
C[C@H](CS)C(=O)N1CCC[C@H]1C(=O)O [captopril] | reached its maximum effect faster than GLP |  | 
RLVPVPY [RLVPVPY] |  | 87.7 | 9.18 ± 0.42
SFYYGK [SFYYGK] |  | 94.2 | 6.45 ± 0.22
